From patent US20120232043A1, “LUBIPROSTONE FOR OBSTETRICAL OR GYNECOLOGICAL APPLICATIONS” (CEMAG, priority 2009, published 2012)

Tested on: women requesting early pregnancy termination (<64 days of amenorrhea)
Experiment: Early pregnancy termination in women: oral mifepristone followed by oral lubiprostone
Type: in vivo
Details: twelve women, 200 mg mifepristone once orally, followed 24 hours later by oral lubiprostone 8 μg twice daily for 2 consecutive days
Procedure: Twelve women requesting early pregnancy termination (<64 days of amenorrhea) have received 200 mg mifepristone once, orally followed 24 hours later by the oral administration of lubiprostone (8 μg twice daily for 2 consecutive days). Efficacy rate (i.e. complete pregnancy termination, without need for surgical procedure) was […]. In one person, ovular fragments had to be removed at the uterine os with a forceps. Median bleeding time was 8 days. There was no specific adverse event except mild diarrhea in 3 subjects.

Median bleeding time: 8 days
Compound: CCCCC(F)(F)[C@@]1(O)CC[C@H]2[C@@H](CC(=O)[C@@H]2CCCCCCC(=O)O)O1 [lubiprostone, 7-[(2R,4aR,5R,7aR)-2-(1,1-difluoropentyl)-2-hydroxy-6-oxo-3,4,4a,5,7,7a-hexahydrocyclopenta[b]pyran-5-yl]heptanoic acid]
Efficacy rate (i.e. complete pregnancy termination, without need for surgical procedure) (<64 days of amenorrhea): 97%
Adverse event: mild diarrhea (no other specific adverse event): 3 subjects
Ovular fragments had to be removed at the uterine os with a forceps: one
